How the values were obtained:
[1] = Zeta potential assay of LNPs; format: physicochemical; settings: LNP, hEPO mRNA, Lipid:Cholesterol:DSPC:PEG-2k 50:38.5:10:1.5, N:P 6
Excerpt: (§1) Various lipid nanoparticle compositions comprising a nucleic acid payload are characterized by a variety of methods. For example, dynamic light scattering (DLS) is used to determine particle sizes (Wyatt Dynapro Platereader 111). In addition, instruments such as the Zetasizer Nano ZS (Malvern Instruments Ltd) are used to measure multiple physical properties of a lipid nanoparticle composition, such as particle size, polydispersity index (PDI), and zeta potential. Fluorescence-based assays are used to determine the efficiencies of nucleic acid encapsulation in the lipid nanoparticles. Fluorescence-based assays are used to determine the “apparent pKa” of the lipid nanoparticles. Both fluorescence assays are evaluated on a Varioskanlux plate reader (ThermoScientific).
A Zetasizer Nano ZS (Malvern Instruments Ltd) is used to determine the zeta potential of the nanoparticle compositions. Briefly, a 5 uL aliquot of an approximately 0.5 mg mRNA/mL sample is diluted into 800 uL 0.1×PBS. This sample is then transferred to a disposable conducting cuvette and the zeta potential is measured.

[2] = Apparent pKa of LNPs (TNS assay); format: physicochemical; settings: LNP, hEPO mRNA, Lipid:Cholesterol:DSPC:PEG-2k 50:38.5:10:1.5, N:P 6
Excerpt: as §1
The apparent pKa of lipid nanoparticle composition is measured using a 6-(p-Toluidino)-2-naphthalenesulfonic acid (TNS) assay. Briefly, lipid nanoparticles (10 uL of approximately 0.5 mg mRNA/mL) and TNS probe (40 uL of 1 mM stock) are added to 750 uL of TNS buffer (25 mM citric acid, 20 mM sodium phosphate, 150 mM NaCl, and 20 mM ammonium acetate), at a pH ranging from 2 to 10. 20 uL of each sample are added to 80 uL of buffer at each pH in a 96-well plate. The plate is incubated for 10 minutes, and the fluorescence signal is measured by means of a spectrofluorometer (Varioskanlux, ThermoScientific) with excitation/emission settings of λex=321 nm, and λem=445 nm. The apparent pKa of the nanoparticle composition is determined by deriving the pH at which 50% of the pH 2 fluorescent signal is present. All datapoints are normalized to the fluorescent signal at pH 2.

[3] = LNP size and polydispersity index by dynamic light scattering (DLS); format: physicochemical; settings: hEPO mRNA, Lipid:Cholesterol:DSPC:PEG-2k 50:38.5:10:1.5, N:P 6
Excerpt: as §1
After formulation and processing of the lipid nanoparticle compositions, the Z-average size of lipid nanoparticle composition are assayed by dynamic light scattering (DLS) (e.g., using a Wyatt Dynapro Platereader III or Malvern Zetasizer ZS). Briefly, an aliquot of 2 uL of the processed nanoparticle composition mixture (at an RNA concentration of approximately 0.5 mg/mL) is diluted into 50 uL phosphate buffered saline (0.1×PBS) and loaded into a 384 well plate. The sample is then analyzed to determine nanoparticle size.
(§2) LNPs were characterized by dynamic light scattering (DLS) measurement for measuring its hydrodynamic radius and polydispersity index (PDI). Encapsulation efficiency (EE %) and total RNA concentration were quantitated using a fluorescence based Ribogreen assay.

[4] = Encapsulation efficiency, fluorescence based Ribogreen assay; format: physicochemical; settings: LNP, hEPO mRNA, Lipid:Cholesterol:DSPC:PEG-2k 50:38.5:10:1.5, N:P 6
Description: For lipid nanoparticle formulations containing an RNA, a QUANTIT™ RIBOGREEN® RNA assay (Invitrogen Corporation) is used to evaluate the encapsulation of RNA within the lipid nanoparticle formulation.
The samples are diluted to ˜10 ug/ml in TE buffer. In a 96 well plate, 50 ul of the diluted sample is added to 50 uL TE buffer in duplicates and 20 uL of diluted sample is added to 80 uL Triton X buffer (2% triton in TE buffer) in duplicates. The plate is incubated for 10 minutes at room temperature. Next, RIBOGREEN® is diluted 1:200 in TE BUFFER, and 100 uL is added to each sample well. The fluorescence intensity is measured using a fluorescence plate reader (e.g., Varioskanlux, ThermoScientific) at an excitation wavelength of about 480 nm and an emission wavelength of about 520 nm. The encapsulation efficiency can be determined by using the percentage ratio of non-encapsulated RNA (TE sample) over the total RNA (TX sample), then subtracting from 100 to find the percentage of encapsulated RNA amount.
as §2

C57BL/6 female mice = test: In vivo hEPO expression of hEPO mRNA LNPs, serum ELISA; settings: LNP 50:38.5:10:1.5, N:P 6, 0.2 mg/kg hEPO mRNA, tail vein injection, blood serum 6 h post-administration
Description: In this example, messenger RNA molecules encoding hEPO proteins were formulated in lipid nanoparticles for delivery in vivo. The lipid nanoparticle (LNP) formulations comprised of a lipid composition of ionizable lipid: helper lipid: cholesterol. DMG-PEG2k at 50:10:38.5:1.5 mol %. The lipid mixture in ethanol was mixed with hEPO mRNA in RNA acidifying buffer (10 mM citrate, pH 4) at an ionizable-lipid-nitrogen-to-RNA-phosphate ratio (N:P) of 6 using a microfluidic device (Precision NanoSystems, Inc.) at a combined flow rate of 10 mL/min (7.5 mL/min for aqueous buffer, RNA and 2.5 mL/min for ethanol, lipid mix). The resulting particles were neutralized by buffer exchange into Dulbecco's phosphate buffer solution via PD-10 desalting column. The neutralized particles were concentrated using 100 kDa AMICON® Ultra centrifugal filters and sterile filtered using 0.2 um syringe filters. Samples were then characterized and diluted as needed (3 replicates).
The in vivo studies were performed in C57BL/6 female mice at 6 to 8 weeks weighing in at approximately 20 g. The LNPs formulated with different ionizable lipids at 0.2 mg/kg of hEPO mRNA were administered by tail vein injection and animals were euthanized at 6 h post-administration for blood serum sample collection. The hEPO levels from the samples were analyzed and cross-compared by enzyme-linked immunoassay (ELISA) according to manufacturer's protocol. The hEPO expression levels for each of the LNPs was compared to a control LNP comprising SM102 (DC Chemicals Cat. No. DC52025). (FIG. 1).

Compound | Zeta [1] | pKa [2] | PDI [3] | Size [3] | EE [4] | hEPO (C57BL/6 female mice)
CCCCCCCCC(CC)OC(=O)CCCCCCCN(CCCCCCCC(=O)OC(CCCCCCCC)CCCCCCCC)CCCNc1cc(N)n[nH]1 (stereo not drawn) [Lipid 22] | −15.3 mV | 5.8 | 0.159 | 62.7 nm | 99.9% | 78.29 ng/mL
CCCCCCCCCCCOC(=O)CCCCCN(CCO)CCCCCCCC(=O)OC(CCCCCCCC)CCCCCCCC [SM-102, heptadecan-9-yl 8-((2-hydroxyethyl)(6-oxo-6-(undecyloxy)hexyl)amino)octanoate, reference compound] | −3.1 mV | 7 | 0.106 | 78.70 nm | 96.7% | 2457.05 ng/mL

From US20240293318A1, “CLEAVABLE LINKER-CONTAINING IONIZABLE LIPIDS AND LIPID CARRIERS FOR THERAPEUTIC COMPOSITIONS” (Flagship Pioneering Innovations VII, LLC, priority 2023, published 2024)
